Series [1] is described as follows: Acute toxicity on mice (Litchfield and Wilcoxon). The note with it: mouse, in vivo, po. As to the method: The test was carried out according to the method of Litchfield and Wilcoxon [Litchfield, J. T. and Wilcoxon, F. W.: J. Pharmacol. Exp. Ther., 96, 99 (1949)] by using white mice belonging to the CFLP strain and weighing 10 to 22 g, 10 animals per dose. The test compounds were administered orally in a volume of 20 cm^3 /kg.

Series [2] deals with erosion of the stomach wall. As to the kind of experiment: Cytoprotective effect, ethanol erosion (Robert). Format: in vivo. Particulars: rat; for ED50: po, 1 cm^3 abs. ethanol; for Ratio of acid-secretion inhibition and erosion inhibition: ratio of ED50 values, p.o. As to the method: 3. The cytoprotective effect was determined according to the method of Robert [Robert, A.: Cytoprotection by prostaglandins. […] Rats weighing 200 to 250 g were used as test animals. 1 cm^3 of abs. ethanol was introduced to the stomach to produce an erosion of the stomach wall. The length and frequency of the lesions (erosion index and frequency) were measured and the percentage inhibition of lesion formation compared with vehicle-treated animals was calculated.

The test system of series [3] is Male Wistar rats. Description: Conditioned avoidance response inhibition, antipsychotic effect. The class given is in vivo, rat (Wistar). The note with it: rat; for Inhibition of the conditioned reflex (%): 30 mg/kg p.o., ++ = p < 0.05. As to the method:
Conditioned avoidance response inhibition
The antipsychotic (neuroleptic) effect was measured by the inhibition of the learned conditioned avoidance reflex. The male Wistar rats, used for the study, were of 120-150 g body weight at the commencement of learning. A shuttle box was used as experimental device; it consists of two parts, 24×24.5×23 cm each, separated by a wall with a 6×9 cm gate. In response to a sutiable warning stimulus, in order to avoid the punishing (unconditioned) stimulus, animals within the box passed through the gate from one part to the other. The warning, i.e. conditioned stimulus (CS), a white light (1 Hz) blinking for 15 seconds, was applied at the place of the actual animal existence. The unconditioned stimulus (US), in form of 0.6 mA intensity electric shock, was randomly applied to the paw during the last 5 seconds of the conditioned stimulus. The animal's movement during the CS and US from one part of the box to the other, was defined as avoidance and escape responses, respectively. Both responses ceased the actual stimulus and stopped the trial. The time elapsed until the next trial (intertrial interval, ITI) was 15 seconds. While one experiment was carried out daily, an experiment consisted of 80 trials. Learning efficiency was expressed as percentage of the successful to the total avoidances. Effect of the neuroleptic drugs was examined in animals with stabilized conditioned reflexes and with at least 75% learning efficiency. Dosing was carried out once a week, one hour before the measurement in the shuttle box. To calculate the neuroleptic effect (50% inhibiting dose, ID50) , results obtained after the treatment were compared to those obtained on the previous day (controls).

Series [4] is described as follows: Acute toxicity on mice (Litchfield and Wilcoxon). The note with it: mouse, in vivo, ip.
In series [5] the test system is Male Wistar rats. Description: Vogel test (drinking conflict test), anxiolytic effect. The class given is in vivo, rat (Wistar). The note with it: for minimal effective dose: ip, 0.5 h, rat, intraperitoneally, half an hour before testing, read-out: MED (minimum effective dose), Vogel test; for anxiolytic activity (in words): Vogel test, compared with Meprobamate or within the group. As to the method:
1.1. Vogel test (drinking conflict test)
The anxiolytic effect was tested by using the method of Vogel et al. Male Wistar rats of 160 to 180 g body weight were kept free of food and drinking water for 24 and 48 hours, respectively. Test and carrier substances were administered intraperitoneally half an hour before testing. Animals within the experimental chamber were provided with drinking water through an inserted tube. After the animals' each twenty lapping for water the device emitted a 2 mA intensity electric shock through the drinking tube. During 5 minutes the shocks tolerated by the animals in order to quench their thirst were counted. The effect of treatment was expressed as the % increase of the tolerated shocks. The minimum effective dose (MED) was determined for each test compound [Volge, J. R., Beer, B., Clody, D. E.: Psychopharmacologia (Berl.) 21, 1 (1971)].

The subject of another series is mice. Description: Effect on the spontaneous motor activity (Borsy), sedative effect. The class given is in vivo, mouse. Particulars: Mus musculus, po, 0.5 h; mice, orally, 30 minutes; read-out: ID50, spontaneous motor activity. How it is done: 2.1. Effect on the spontaneous motor activity
The test was carried out according to the method of Borsy et al. Groups consisting of 3 mice each were treated orally with different doses of the compounds to be tested. Then the test animals were placed into a 10-channel Dews system equipment. In this equipment the number of interruptions of infrared beam within 30 minutes was counted. […] Int. Pharmacodyn. 124, 1 (1960)].

The target of the next series is T1, H^+ /K^+ -ATP-ase (Sus scrofa, UniProt P19156).
T1 construct: on partially purified pig's microsome specimen; from tissue; host or cells: pig stomach, partially purified microsomes
Description: H+/K+-ATP-ase inhibition on partially purified pig's microsome specimen. The class given is biochemical. How it is done:
1. H^+ /K^+ -ATP-ase inhibition on pig's stomach
The test was carried out according to the method of Rabon and Sachs [E. C. Rabon et al.: Preparation of gastric H^+ K^+ -ATP-ase, Methods in Enzymology, 157, 649-651 (1988)]. The activity of the prepared enzyme was measured both in the presence as in the absence of K^+ ions. The difference in the libaration of phosphorus representing the activity of the enzyme was measured.

The test system of a further series is gastric-acid secretion. As to the kind of experiment: Gastric-acid-secretion test (Shay). The class given is in vivo, rat. Particulars: po; rat, p.o., 4 hours after ligature; read-out: Acid-secretion inhibition, ED50. As to the method: 2. […] The liberated gastric-acid content was determined by titration 4 hours after the ligature of the duodenum.
The test system of series [6] is Male rats (Sprague Dawley). As to the kind of experiment: Elevated plus maze test on rat, anxiolytic effect. Format: in vivo, rat (Sprague Dawley). The note with it: po, 1 h, p.o., pretreatment 60 minutes, read-out: MED (minimum effective dose), elevated plus maze. How it is done:
1.2. Elevated plus maze test on rat
The test was carried out with the aid of a wooden plus-shaped maze elevated to a height of 50 cm. Two arms--opposite to one another--were enclosed up to a height of 40 cm along their longer sides and at the end. The other two arms were without walls (open arms). The central 15×15 cm part was open. Male rats belonging to the Sprague Dawley strain and weighing 220 to 260 g were used as test animals. After pretreatment lasting 60 minutes the animals were placed into the central part of the maze. During the 5 minutes observation period the following parameters were recorded: […]
time spent on the open arms time spent on the closed arms number of open arm entries number of closed arm entries
The drug effect was expressed as percent increase of the time spent on the open arms and number of open arm entries. The minimum effective dose which caused a significant increase of the time spent on the open arms was calculated for every substance [Pelow, S., Chopin, P., File, S. E., Briley, M.: J. Neurosci. Methods 14, 149-167 (1985)].

For a further series, the system named is rat's parietal cell. As to the kind of experiment: 14C-aminopyrine accumulation by parietal cells. The note with it: stimulated rat parietal cells; read-out: ED50, inhibition of aminopyrine accumulation. Format: cell-based, rat (Wistar). As to the method: 4. Measurement of ^14 C-aminopyrine accumulation by parietal cells
Gastric mucosal cells were prepared from rat stomach. Wistar rats (130-160 g) were killed by decapitation, the stomachs were rapidly excised and their contents were washed out with saline. The stomachs were then everted and filled with 2.5 mg/ml of pronase containing buffer. These sacs were incubated for 60 minutes at 37° C. in carbogen gassed medium. This incubation was followed by gentle stirring at room temperature for 45 minutes by a magnetic stirrer in order to disperse the cells from the mucosa of the everted stomachs digested only from the serosal side. The viability of the cells was determined by trypan-blue exclusion test. The percentage of the parietal cells was determined on the basis of their morphological characteristics.
Acid production of the cells prepared in this way could be induced by cyclic AMP, histamine (in the presence of 3-isobutyl-1-methylxanthine) or carbachol. The acid production was assessed by measuring the accumulation of ^14 C-aminopyrine. The undissociated weak base can penetrate into the acid-containing compartments of the cells. […] Thus, the distribution of ^14 C-aminopyrine between the extracellular and intracellular spaces is an indirect quantitative index for the cellular acid production [W. Schepp, J. Schmidtler, C. […]

The text below walks through data of patent US5486528A, “Basic ethers and process for the preparation thereof” (Egis Gyogyszergyar Rt., priority 1993, dated 1996).

T1 sequence (P19156 2-1034 limits assumed): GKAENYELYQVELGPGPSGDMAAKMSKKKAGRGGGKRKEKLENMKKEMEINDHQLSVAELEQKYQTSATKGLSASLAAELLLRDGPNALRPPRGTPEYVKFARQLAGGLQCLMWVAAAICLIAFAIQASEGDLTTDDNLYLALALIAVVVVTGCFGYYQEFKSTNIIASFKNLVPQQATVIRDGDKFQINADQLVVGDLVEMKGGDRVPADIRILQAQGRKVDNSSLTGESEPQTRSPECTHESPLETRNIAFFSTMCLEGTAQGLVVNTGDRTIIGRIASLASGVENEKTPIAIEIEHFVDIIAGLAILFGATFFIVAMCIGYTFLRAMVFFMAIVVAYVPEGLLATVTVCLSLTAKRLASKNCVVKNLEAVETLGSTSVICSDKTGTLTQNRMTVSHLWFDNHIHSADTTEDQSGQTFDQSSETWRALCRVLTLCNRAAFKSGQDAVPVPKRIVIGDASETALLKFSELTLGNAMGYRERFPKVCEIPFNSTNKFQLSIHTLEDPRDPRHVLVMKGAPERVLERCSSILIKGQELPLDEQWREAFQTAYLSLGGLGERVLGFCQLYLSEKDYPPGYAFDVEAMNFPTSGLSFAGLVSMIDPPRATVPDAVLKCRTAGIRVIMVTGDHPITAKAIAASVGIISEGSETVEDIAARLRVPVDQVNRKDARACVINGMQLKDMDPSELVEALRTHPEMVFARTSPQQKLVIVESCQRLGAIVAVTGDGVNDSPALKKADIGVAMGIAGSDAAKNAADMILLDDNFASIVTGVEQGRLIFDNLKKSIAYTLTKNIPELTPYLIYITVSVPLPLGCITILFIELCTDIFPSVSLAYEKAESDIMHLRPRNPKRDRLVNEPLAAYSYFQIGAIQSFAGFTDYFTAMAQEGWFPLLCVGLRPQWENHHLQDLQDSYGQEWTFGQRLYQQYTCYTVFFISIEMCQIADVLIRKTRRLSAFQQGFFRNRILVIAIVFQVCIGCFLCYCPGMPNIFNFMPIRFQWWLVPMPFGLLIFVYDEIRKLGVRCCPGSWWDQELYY
T1 sequence (P18434 whole entry partner): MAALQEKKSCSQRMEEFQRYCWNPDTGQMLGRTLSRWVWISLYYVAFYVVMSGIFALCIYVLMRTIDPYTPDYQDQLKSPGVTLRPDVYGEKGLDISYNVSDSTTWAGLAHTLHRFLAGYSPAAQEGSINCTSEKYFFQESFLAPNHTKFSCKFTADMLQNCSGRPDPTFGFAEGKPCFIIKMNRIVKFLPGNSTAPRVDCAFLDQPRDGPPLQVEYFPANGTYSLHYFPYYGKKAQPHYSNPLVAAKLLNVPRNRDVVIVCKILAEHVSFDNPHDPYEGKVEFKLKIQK

With `CC(C)CC(/C=C/c1ccccc1)=N\OCCN(C)C` [Example 17, 1-Phenyl-5-methyl-3-(E)-[2-(dimethylamino)-ethoxyimino]-1-(E)-hexene], the values for the LD50 at 336 h in [1] and in series [4] were above 1000 mg/kg and 100 to 300 mg/kg, respectively. The ED50 in series [2] is 2.7 mg/kg; in the series with mice, above 100 mg/kg; in the series on gastric-acid secretion it was 166 mg/kg. For the same compound, in series [2], the “Ratio of acid-secretion inhibition and erosion inhibition” value turned out to be 61.4. Further, in the series on Male Wistar rats [3], the “Inhibition of the conditioned reflex (%)” value came out at 40%. The “antipsychotic / conditioned-reflex-inhibiting activity (in words)” value with Male Wistar rats [3] (in vivo) was “slight conditioned-reflex-inhibiting activity”. The minimal effective dose with Male Wistar rats [5] worked out at 30 mg/kg. This compound also returned an IC50 against H^+ /K^+ -ATP-ase above 30 µM.
For the compound `CC(C)CC(/C=C/c1ccccc1)=N\OCCN1CCCCC1` [Example 10, 1-Phenyl-5-methyl-3-(E)-[2-(N-piperidinyl)-ethoxyimino]-1-(E)-hexene], in the series on Male Wistar rats [3], the “Inhibition of the conditioned reflex (%)” value is 13%. In addition, in the series on Male Wistar rats [5], the “anxiolytic activity (in words)” value was “the most active members in the structural group” and the minimal effective dose turned out to be 0.1 mg/kg. Besides, the ED50 in the series with mice is above 100 mg/kg. Further, the minimal effective dose in [6] was found to be 10 mg/kg.
Regarding `CCCC(C)(COC(N)=O)COC(N)=O` [Meprobamate, reference compound], the minimal effective dose with Male Wistar rats [5] was 25 mg/kg; in [6] it was above 10 mg/kg.
Take `CCCC(/C=C/c1ccccc1)=N\OCCCN(C)C` [Example 21, 1-Phenyl-3-(E)-[3-(dimethylamino)-propoxyimino]-1-(E)-hexene]: the “Inhibition of the conditioned reflex (%)” value with Male Wistar rats [3] is listed as 7%. In the series with Male Wistar rats [5], the “anxiolytic activity (in words)” value is listed as “the most active members in the structural group” and the minimal effective dose amounted to 0.03 mg/kg. The ED50 in the series with mice is above 100 mg/kg. Besides, the minimal effective dose in [6] came to 1 mg/kg.
As for `CC(C)CCC(/C=C/c1ccc(Cl)cc1)=N\OCCCN1CCCCC1` [Example 9, 1-(4-Chlorophenyl)-6-methyl-3-(E)-[3-(N-piperidinyl)-propoxyimino]-1-(E)-heptene], the LD50 at 336 h was above 1000 mg/kg in [1] and 160 mg/kg in series [4]. Also, the IC50 was found to be 0.05 µM in the series on rat's parietal cell and 12 µM on H^+ /K^+ -ATP-ase. The ED50 in series [2] was 5.9 mg/kg; with mice it was above 100 mg/kg; with gastric-acid secretion, 107 mg/kg. Further, the “Ratio of acid-secretion inhibition and erosion inhibition” value in series [2] is 18.1. The “Inhibition of the conditioned reflex (%)” value with Male Wistar rats [3] was 16%. Moreover, the minimal effective dose in the series with Male Wistar rats [5] is above 30 mg/kg.
In the case of `CCCCCCC(/C=C/c1ccc(Cl)cc1)=N\OCCN1CCCCC1` [Example 3, 1-(4-Chlorophenyl)-3-(E)-[2-(N-piperidinyl)-ethoxyimino]-1-(E)-nonene], the results for the LD50 at 336 h in [1] and in series [4] were 500 to 1000 mg/kg and 100 to 300 mg/kg, respectively. Also, the ED50 in [2] was 2.5 mg/kg; in the series on gastric-acid secretion, 50 to 150 mg/kg. Besides, the “Ratio of acid-secretion inhibition and erosion inhibition” value in series [2] is given as above 20. The IC50 at H^+ /K^+ -ATP-ase turned out to be 10 µM.
